Test results taken from patent US10953051B2, “Methods and means for protecting the skin against pathogenic microorganisms” (Novozymes A/S, priority 2005, dated 2021).
Positions of bridges follow the written chain, without caps; N, C: chain ends. Non-standard residues stand in square brackets, D forms with d. Residues, ends and D or L forms follow the SMILES beside them. *: point of attachment. Ileψ(thiazoline)Cys = CC[C@H](C)[C@H](N)C1=N[C@H](C(=O)*)CS1; dOrn = NCCC[C@@H](N)C(=O)O

Columns and labels:
[1] = system: Staphylococcus aureus (DSM346); assay: in-vitro-hole plate assay, growth inhibition of S. aureus in comparison to bacitracin and erythromycin; assay type: cell-based; conditions: pre-cutted holes, BHI plates; antibiotics at different concentrations, defined numbers of Lactobacillus cells
Procedure: The term “microorganisms of the pathogenic transient micro flora” has been described herein above. Preferably, the term relates to Staphylococcus aureus. […] This effect has been compared to commercial antibiotic cream preparations of bacitracin and erythromycin. […] The diameter of the inhibition zones has been measured and the area of inhibition has been calculated thereof. […] Lactic acid bacteria were cultivated (OB-LB-Sa3; DSM 18006) from a −80° C. freezing culture in 1 ml MRS broth in eppendorf tubes. Tubes were closed and cultivated for 2 days at 37° C. 10 μl of this pre culture was transferred to the main culture consisting of 7 ml MRS broth in falcon tubes. The culture was incubated for 2 days. After cultivation cells were harvested by centrifugation (15 min, 4000×g). The cell pellet was washed two times with K/Na-buffer (each 1 ml). Cells were resuspended in 200 μl K/Na buffer. The indicator strain was Staphylococcus aureus (DSM346). 20 ml BHI broth in a shaking glass flask were inoculated with 15 μl of a 24 h pre culture. The indicator strain was cultivated for 24 h at 37° C. An aliquot was diluted to an optical density OD595 nm of 0.025-0.05 in BHI-broth and 800 μl spread on indicator plates (BHI). The agar was stamped using a cork borer. The holes were filled with 5 μl or 10 μl of the pre cultured lactic acid bacteria or corresponding volumes of commercial antibiotic preparations.

resident flora = conditions: infants, after treatment with the antibiotic (Brook, 2000); cited from earlier work

Compound	growth inhibition of S. aureus (inhibition zone, area of inhibition) [1]	repression of the resident flora (resident flora)
CC[C@H](C)[C@H](N)C1=N[C@H](C(=O)N[C@@H](CC(C)C)C(=O)N[C@H](CCC(=O)O)C(=O)N[C@H](C(=O)N[C@H]2CCCCNC(=O)[C@H](CC(N)=O)NC(=O)[C@@H](CC(=O)O)NC(=O)[C@H](Cc3cnc[nH]3)NC(=O)[C@@H](Cc3ccccc3)NC(=O)[C@H]([C@@H](C)CC)NC(=O)[C@@H](CCCN)NC2=O)[C@@H](C)CC)CS1 [bacitracin] ({Ileψ(thiazoline)Cys}-L[dE]IK[dOrn]I[dF]H[dD]N; lactam 4-C)	growth inhibition	
CC[C@H]1OC(=O)[C@H](C)[C@@H](O[C@H]2C[C@@](C)(OC)[C@@H](O)[C@H](C)O2)[C@H](C)[C@@H](O[C@@H]2O[C@H](C)C[C@H](N(C)C)[C@H]2O)[C@](C)(O)C[C@@H](C)C(=O)[C@H](C)[C@@H](O)[C@]1(C)O [erythromycin]	growth inhibition	
CC1(C)S[C@@H]2[C@H](NC(=O)[C@H](N)c3ccc(O)cc3)C(=O)N2[C@H]1C(=O)O [amoxicillin]		about 50%
Lactobacillus delbrückii ssp. delbrückii OB-LB-Sa3	growth inhibition	
